From ChEMBL document CHEMBL1146958, “The SAR of 4-substituted (6,6-bicyclic) piperidine cathepsin S inhibitors” (Bioorg Med Chem Lett, 2006)

target: Cathepsin S (Homo sapiens, UniProt P25774)
Sequence (P25774 whole entry): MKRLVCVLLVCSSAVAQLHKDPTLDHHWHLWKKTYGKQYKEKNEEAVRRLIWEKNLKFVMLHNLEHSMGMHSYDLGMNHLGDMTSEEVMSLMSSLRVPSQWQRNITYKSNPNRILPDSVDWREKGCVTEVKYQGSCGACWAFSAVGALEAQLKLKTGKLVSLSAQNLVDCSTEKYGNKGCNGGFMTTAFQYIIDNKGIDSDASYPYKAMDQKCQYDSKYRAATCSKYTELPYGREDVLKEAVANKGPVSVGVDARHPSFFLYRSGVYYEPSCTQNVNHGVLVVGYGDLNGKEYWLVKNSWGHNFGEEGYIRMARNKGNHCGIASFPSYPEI
Description: Inhibition of cathepsin S

Row | IC50 [nM] | Structure (SMILES)
1 | 1700 | CS(=O)(=O)N1CCc2c(c(-c3ccc(C(F)(F)F)cc3)nn2CC(O)CN2CCN(c3ccnc4ccccc34)CC2)C1 (stereo unspecified)
2 | 75 | CS(=O)(=O)N1CCc2c(c(-c3ccc(Br)cc3)nn2CC(O)CN2CCC(N3c4ccc(Cl)cc4CNS3(=O)=O)CC2)C1 (stereo unspecified)
3 | 1780 | CS(=O)(=O)N1CCc2c(c(-c3ccc(Br)cc3)nn2CC(O)CN2CCC(N3CCc4ccccc4C3)CC2)C1 (stereo unspecified)
4 | 322 | CS(=O)(=O)N1CCc2c(c(-c3ccc(Br)cc3)nn2CC(O)CN2CCC(N3CCCc4ccccc43)CC2)C1 (stereo unspecified)

Row | Structure (SMILES) | IC50 [nM]
5 | CS(=O)(=O)N1CCc2c(c(-c3ccc(C(F)(F)F)cc3)nn2CC(O)CN2CCC(N3C(=O)COc4ccccc43)CC2)C1 (stereo unspecified) | 28
6 | CS(=O)(=O)N1CCc2c(c(-c3ccc(C(F)(F)F)cc3)nn2CC(O)CN2CCC(N3C(=O)OCc4ccccc43)CC2)C1 (stereo unspecified) | 88
7 | CS(=O)(=O)N1CCc2c(c(-c3ccc(Br)cc3)nn2CCCN2CCC(N3C(=O)COc4ccccc43)CC2)C1 | 60

target: T1, Alpha-1A adrenergic receptor (Homo sapiens) (UniProt P35348); test: Inhibition of alpha 1A adrenergic receptor at 1 uM
T1 sequence (whole entry): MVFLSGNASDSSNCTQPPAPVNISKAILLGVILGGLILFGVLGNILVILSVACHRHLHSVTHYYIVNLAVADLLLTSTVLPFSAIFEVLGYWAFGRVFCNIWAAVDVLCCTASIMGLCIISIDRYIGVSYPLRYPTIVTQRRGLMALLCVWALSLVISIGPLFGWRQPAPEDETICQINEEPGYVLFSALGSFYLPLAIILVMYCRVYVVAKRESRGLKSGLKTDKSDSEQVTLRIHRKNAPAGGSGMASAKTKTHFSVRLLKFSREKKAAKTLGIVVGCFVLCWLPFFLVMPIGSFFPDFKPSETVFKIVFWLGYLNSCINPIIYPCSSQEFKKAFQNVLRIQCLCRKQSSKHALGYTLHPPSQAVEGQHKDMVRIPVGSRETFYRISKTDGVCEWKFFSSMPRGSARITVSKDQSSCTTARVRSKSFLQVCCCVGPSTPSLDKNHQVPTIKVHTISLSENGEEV

Row | Structure (SMILES) | inhibition [%]
8 | CS(=O)(=O)N1CCc2c(c(-c3ccc(C(F)(F)F)cc3)nn2CC(O)CN2CCC(N3C(=O)COc4ccccc43)CC2)C1 (stereo unspecified) | 60
9 | CS(=O)(=O)N1CCc2c(c(-c3ccc(C(F)(F)F)cc3)nn2CCCN2CCC(N3C(=O)COc4ccccc43)CC2)C1 | 72
10 | CS(=O)(=O)N1CCc2c(c(-c3ccc(C(F)(F)F)cc3)nn2CC(O)CN2CCC(N3C(=O)NCc4cc(Cl)ccc43)CC2)C1 (stereo unspecified) | 40
11 | CS(=O)(=O)N1CCc2c(c(-c3ccc(C(F)(F)F)cc3)nn2CC(O)CN2CCC(N3C(=O)CCc4cc(Cl)ccc43)CC2)C1 (stereo unspecified) | < 10
